Data on two compounds can be found in patent US20200276334A1, “New Therapy for Pompe Disease” (Erasmus University Medical Center Rotterdam, priority 2017, published 2020).

The conditions of data set [1]: cited from earlier work.
For data set [2], the system named is Control 2 iPSCs. Description: Optimization of CHIR99021 concentration, Control 2 iPSC colonies (confluency, Pax7 staining). It is filed as cell-based, human. The protocol:
(§1) A confluent iPSC culture in a 35 mm dish was incubated for 5 minutes at 37° C. with 2 mg/ml collagenase IV in DMEM/F12, cut into pieces with a 23 gauge needle, detached with a cell scraper and split into a 10 cm dish with a confluency of 40%. After 5 days, differentiation into myogenic progenitor cells (MPCs) was started with myogenic differentiation medium (DMEM/F12, 1% Insulin-Transferrin-Selenium-Ethanolamine, 1% penicillin/streptomycin/L-glutamine) supplemented with 3.5 μM CHIR99021 for 5 days and changed to myogenic differentiation medium supplemented with 20 ng/ml FGF2 (Peprotech. London. UK) for 14 days. The last 16 days, cells were cultured in myogenic differentiation medium only. For FACS purification cells were detached with TrypLE and stained on ice with anti-C-MET-APC (1:50, R&D systems, Minneapolis Minn.) and anti-HNK-1-FITC (1:100, Aviv Systems Biology, San Diego. Calif.) antibodies. Prior to FACS, Hoechst (33258, Life Technologies, Carlsbad, Calif.) was added to stain live cells. The c-MET^+/Hoechst^+/Hnk-1^− fraction was sorted in MPC proliferation medium (DMEM high glucose supplemented with 10% fetal bovine serum, 1% penicillin/streptomycin/L-glutamine and 100 ng/ml FGF2) supplemented with 1× Revitacell supplement (Gibco, Waltham. Mass.). For slightly positive cultures, MPCs were sorted with a maximum sorting time of 20 minutes and pooled into a single well until amount of 20.000 for 96 well, 40.000 for 48 well or 80.000 for 24 well was reached. After 24 hours. MPCs were expanded in MPC proliferation medium or cryopreserved. Further details are described previously (van der Wal et al., 2017).
(§2) Differentiated cells were fixed by adding 1 volume of 4% paraformaldehyde (PFA) (Merck, Kenilworth, N.J.) in PBS to the medium. PFA was incubated for 10 minutes at room temperature and afterwards replaced by PBS. Fixed cells were either stored at 4° C. or directly stained. For staining, cells were permeabilized for 5 minutes with 0.1% Triton X-100 (AppliChem, Darmstadt, Germany) in PBS and blocked for 30 minutes at room temperature in blocking solution (PBS-T (0.1% Tween. Sigma Aldrich, Irvine. UK) with 3% BSA (Sigma Aldrich. Irvine, UK)). Primary antibodies (Table 5) were incubated 1 hour at room temperature and diluted into 0.1% BSA in PBS-T. The unbound first antibody was removed by washing three times for 5 minutes with PBS-T. Secondary antibodies (1:500, Alexa-Fluor-594-α-goat, Alexa-Fluor-488-α-mouse, Alexa-Fluor-594-α-rabbit, Alexa-Fluor-488-α-rabbit, Invitrogen, Carlsbad, Calif. or horse anti-mouse biotin, Vector Laboratories, Burlingame, Calif.) were incubated for 30 minutes at room temperature in PBS-T. When a secondary biotinylated antibody was used cells were washed three times for 5 minutes with PBS-T and incubated with Streptavidine 594 (1:500. Invitrogen, Carlsbad. Calif.,). The cells were subsequently washed two times for 5 minutes with PBS and incubated for 15 minutes with Hoechst (1:15000. Thermo Scientific, Waltham, Mass.). Cells were imaged in PBS.
(§3) The first step of the differentiation procedure from iPSCs into MPCs is the stimulation of the Wnt pathway with CHIR99021. In a previous study on which the current protocol was based. […] In order to define the optimal concentration of CHIR99021 we generated single cells from iPSCs, and incubated these with 10 μM CHIR99021 for 2 days, followed by the differentiation procedure highlighted in FIG. 5. […] Generating single iPSCs in feeder-based culture systems causes massive apoptosis and addition of Rock inhibitor is required (Watanabe et al., 2007). To keep the differentiation protocol applicable for feeder-dependent and feeder-free cultures we decided to further optimize the concentration of CHIR99021 on plated iPSC colonies with a range from 3 to 5 μM CHIR99021, with incubation for 4, 5, 8 or 10 days. […] To avoid toxicity, we used a concentration of 3.5 μM CHIR99021 in our final differentiation protocol.

For data set [3], the system named is pluripotent stem cells. Particulars: cited from earlier work.
In data set [4] the test system is iPSC lines used in this study. Description: CHIR99021 optimisation for differentiation of iPSCs into myogenic progenitor cells. It is filed as cell-based, human. As to the method:
as §1
The first step of the differentiation procedure from iPSCs into MPCs is the stimulation of the Wnt pathway with CHIR99021. In a previous study on which the current protocol was based. […] In order to define the optimal concentration of CHIR99021 we generated single cells from iPSCs, and incubated these with 10 μM CHIR99021 for 2 days, followed by the differentiation procedure highlighted in FIG. 5. […]

The test system of data set [5] is Control 1 iPSCs. Nature of the data set: Optimization of CHIR99021 concentration, Control 1 iPSC colonies (confluency, Pax7 staining). In kind it is cell-based, human. As to the method: as §1, §2, §3

Where two headings read alike, the source gives them in different places. A value given as a limit tells only on which side of the number the result lay.

For “recombinant human GAA: recombinant human acid α-glucosidase used for enzyme replacement therapy”, the half life in data set [1] (in blood) was 2 to 3 h; in data set [1] (in cells), “several days”.
`Cc1cnc(-c2cnc(NCCNc3ccc(C#N)cn3)nc2-c2ccc(Cl)cc2Cl)[nH]1` [CHIR99021, 6-[2-[[4-(2,4-dichlorophenyl)-5-(5-methyl-1H-imidazol-2-yl)pyrimidin-2-yl]amino]ethylamino]pyridine-3-carbonitrile]: the Confluency was 95% in data set [2] (3 μM CHIR99021, 4 days); 100% in data set [2] (3 μM CHIR99021, 5 days); 90% in data set [2] (3 μM CHIR99021, 8 days); 95% in data set [2] (3 μM CHIR99021, 10 days); 95% in data set [2] (4 μM CHIR99021, 4 days); 95% in data set [2] (4 μM CHIR99021, 5 days). The Confluency in data set [2] (4 μM CHIR99021, 8 days) amounted to 95%; in data set [2] (4 μM CHIR99021, 10 days), 85%; in data set [2] (5 μM CHIR99021, 4 days) it was 95%; in data set [2] (5 μM CHIR99021, 5 days), 95%; in data set [2] (5 μM CHIR99021, 8 days), 50%; in data set [2] (5 μM CHIR99021, 10 days) it was 30%. Besides, the Confluency was 65% in data set [5] (3 μM CHIR99021, 4 days); 50% in data set [5] (3 μM CHIR99021, 5 days); 40% in data set [5] (3 μM CHIR99021, 8 days); 40% in data set [5] (3 μM CHIR99021, 10 days); 85% in data set [5] (4 μM CHIR99021, 4 days); 100% in data set [5] (4 μM CHIR99021, 5 days). The Confluency worked out at 75% in data set [5] (4 μM CHIR99021, 8 days); 50% in data set [5] (4 μM CHIR99021, 10 days); 60% in data set [5] (5 μM CHIR99021, 4 days); 70% in data set [5] (5 μM CHIR99021, 5 days); 0% in data set [5] (5 μM CHIR99021, 8 days); 0% in data set [5] (5 μM CHIR99021, 10 days). Further, the “Pax7+” value in data set [2] (4 μM CHIR99021, 4 days) is given as “+ +”; in data set [2] (4 μM CHIR99021, 5 days), “+ +”; in data set [2] (4 μM CHIR99021, 8 days) it was “+ +”; in data set [2] (5 μM CHIR99021, 5 days), “+ +”; in data set [5] (3 μM CHIR99021, 4 days), “+ +”; in data set [5] (4 μM CHIR99021, 4 days) it was “+ + +”. The “Pax7+” value in data set [5] (4 μM CHIR99021, 5 days) is “+ + +”; in data set [5] (4 μM CHIR99021, 10 days) it was “+ +”; in data set [5] (5 μM CHIR99021, 4 days), “+ +”; in data set [5] (5 μM CHIR99021, 5 days), “+ + +”. In addition, in data set [3] (10 μM CHIR99021 incubated for 2 days, Shelton et al., 2014), the “induction of paraxial mesoderm” value is “better induction of paraxial mesoderm”. Moreover, in data set [3] (Borchin et al., 2013), the “concentration at which toxicity was described” value is “higher than 3 μM”. For the same compound, the “Pax7 staining, amount of Pax7-positive areas in the culture” value in data set [4] (control 1 and control 2 iPSCs, 4 μM CHIR99021 for 5 days, range tested 3 to 5 μM for 4, 5, 8 or 10 days) is reported as “highest amount of Pax7-positive areas”. Moreover, in data set [4] (plated iPSC colonies), the “concentration resulting in higher toxicity levels and more variable response among iPSC lines” value was greater than 4 µM. Moreover, in data set [4] (single cells from iPSCs, 10 μM CHIR99021 for 2 days), the “Pax7 positive cells after 40 days of differentiation” value is given as “Pax7 positive cells were observed”.
